Laboratory results published in the NIST ThermoML archive (doi:10.1016/j.jct.2017.10.012).
Numbers after ± are expanded uncertainties.

Conditions: Liquid, Vibrating tube method

CCCC[N+](C)(C)C.O=S(=O)([N-]S(=O)(=O)C(F)(F)F)C(F)(F)F [butyltrimethylammonium bis(trifluoromethylsulfonyl)imide]
Conditions | mass density [kg/m3]
278.15 K, 100 kPa | 1411.9 ± 0.8
278.15 K, 101.33 kPa | 1411.6 ± 0.6
278.15 K, 1000 kPa | 1412.6 ± 0.8
278.15 K, 10000 kPa | 1419 ± 0.9
278.15 K, 20000 kPa | 1425.6 ± 1
278.15 K, 40000 kPa | 1438.3 ± 1.3
278.15 K, 60000 kPa | 1450 ± 1.6
278.15 K, 80000 kPa | 1460.7 ± 1.9
278.15 K, 100000 kPa | 1470.6 ± 2.3
278.15 K, 120000 kPa | 1480.6 ± 2.7
279.15 K, 101.33 kPa | 1410.6 ± 0.6
280.15 K, 101.33 kPa | 1409.6 ± 0.6
281.15 K, 101.33 kPa | 1408.6 ± 0.6
282.15 K, 101.33 kPa | 1407.7 ± 0.6
283.15 K, 101.33 kPa | 1406.7 ± 0.6
284.15 K, 101.33 kPa | 1405.7 ± 0.6
285.15 K, 101.33 kPa | 1404.8 ± 0.6
286.15 K, 101.33 kPa | 1403.8 ± 0.6
287.15 K, 101.33 kPa | 1402.9 ± 0.6
288.15 K, 101.33 kPa | 1402 ± 0.6
289.15 K, 101.33 kPa | 1401 ± 0.6
290.15 K, 101.33 kPa | 1400.1 ± 0.6
291.15 K, 101.33 kPa | 1399.2 ± 0.6
292.15 K, 101.33 kPa | 1398.3 ± 0.6
293.15 K, 101.33 kPa | 1397.4 ± 0.6
294.15 K, 101.33 kPa | 1396.5 ± 0.6
295.15 K, 101.33 kPa | 1395.6 ± 0.6
296.15 K, 101.33 kPa | 1394.7 ± 0.6
297.15 K, 101.33 kPa | 1393.8 ± 0.6
298.15 K, 100 kPa | 1394 ± 0.8
298.15 K, 101.33 kPa | 1392.9 ± 0.6
298.15 K, 1000 kPa | 1394.7 ± 0.8
298.15 K, 10000 kPa | 1401.2 ± 0.9
298.15 K, 20000 kPa | 1408.2 ± 1
298.15 K, 40000 kPa | 1421.2 ± 1.2
298.15 K, 60000 kPa | 1433.1 ± 1.5
298.15 K, 80000 kPa | 1444.1 ± 1.8
298.15 K, 100000 kPa | 1454.5 ± 2.2
298.15 K, 120000 kPa | 1464.3 ± 2.6
299.15 K, 101.33 kPa | 1392 ± 0.6
300.15 K, 101.33 kPa | 1391.1 ± 0.6
301.15 K, 101.33 kPa | 1390.2 ± 0.6
302.15 K, 101.33 kPa | 1389.4 ± 0.6
303.15 K, 101.33 kPa | 1388.5 ± 0.6
304.15 K, 101.33 kPa | 1387.6 ± 0.6
305.15 K, 101.33 kPa | 1386.7 ± 0.6
306.15 K, 101.33 kPa | 1385.8 ± 0.6
307.15 K, 101.33 kPa | 1385 ± 0.6
308.15 K, 101.33 kPa | 1384.1 ± 0.6
309.15 K, 101.33 kPa | 1383.2 ± 0.6
310.15 K, 101.33 kPa | 1382.4 ± 0.6
311.15 K, 101.33 kPa | 1381.5 ± 0.6
312.15 K, 101.33 kPa | 1380.6 ± 0.6
313.15 K, 100 kPa | 1380.9 ± 0.8
313.15 K, 101.33 kPa | 1379.7 ± 0.6
313.15 K, 1000 kPa | 1381.6 ± 0.8
313.15 K, 10000 kPa | 1388.4 ± 0.9
313.15 K, 20000 kPa | 1395.7 ± 1
313.15 K, 40000 kPa | 1409.2 ± 1.2
313.15 K, 60000 kPa | 1421.7 ± 1.5
313.15 K, 80000 kPa | 1433 ± 1.8
313.15 K, 100000 kPa | 1443.7 ± 2.2
313.15 K, 120000 kPa | 1453.7 ± 2.6
314.15 K, 101.33 kPa | 1378.9 ± 0.6
315.15 K, 101.33 kPa | 1378 ± 0.6
316.15 K, 101.33 kPa | 1377.1 ± 0.6
317.15 K, 101.33 kPa | 1376.3 ± 0.6
318.15 K, 101.33 kPa | 1375.4 ± 0.6
319.15 K, 101.33 kPa | 1374.5 ± 0.6
320.15 K, 101.33 kPa | 1373.7 ± 0.6
321.15 K, 101.33 kPa | 1372.8 ± 0.6
322.15 K, 101.33 kPa | 1372 ± 0.6
323.15 K, 101.33 kPa | 1371.1 ± 0.6
324.15 K, 101.33 kPa | 1370.3 ± 0.6
325.15 K, 101.33 kPa | 1369.4 ± 0.6
326.15 K, 101.33 kPa | 1368.6 ± 0.6
327.15 K, 101.33 kPa | 1367.7 ± 0.6
328.15 K, 101.33 kPa | 1366.8 ± 0.6
329.15 K, 101.33 kPa | 1366 ± 0.6
330.15 K, 101.33 kPa | 1365.1 ± 0.6
331.15 K, 101.33 kPa | 1364.3 ± 0.6
332.15 K, 101.33 kPa | 1363.4 ± 0.6
333.15 K, 100 kPa | 1363.4 ± 0.8
333.15 K, 101.33 kPa | 1362.6 ± 0.6
333.15 K, 1000 kPa | 1364.2 ± 0.8
333.15 K, 10000 kPa | 1371.6 ± 0.9
333.15 K, 20000 kPa | 1379.3 ± 1
333.15 K, 40000 kPa | 1393.4 ± 1.2
333.15 K, 60000 kPa | 1406.4 ± 1.4
333.15 K, 80000 kPa | 1418.3 ± 1.7
333.15 K, 100000 kPa | 1429.5 ± 2.1
333.15 K, 120000 kPa | 1439.8 ± 2.5
334.15 K, 101.33 kPa | 1361.7 ± 0.6
335.15 K, 101.33 kPa | 1360.9 ± 0.6
336.15 K, 101.33 kPa | 1360 ± 0.6
337.15 K, 101.33 kPa | 1359.2 ± 0.6
338.15 K, 101.33 kPa | 1358.3 ± 0.6
339.15 K, 101.33 kPa | 1357.5 ± 0.6
340.15 K, 101.33 kPa | 1356.7 ± 0.6
341.15 K, 101.33 kPa | 1355.9 ± 0.6
342.15 K, 101.33 kPa | 1355 ± 0.6
343.15 K, 101.33 kPa | 1354.1 ± 0.6
344.15 K, 101.33 kPa | 1353.3 ± 0.6
345.15 K, 101.33 kPa | 1352.6 ± 0.6
346.15 K, 101.33 kPa | 1351.6 ± 0.6
347.15 K, 101.33 kPa | 1350.8 ± 0.6
348.15 K, 100 kPa | 1350.3 ± 0.8
348.15 K, 101.33 kPa | 1349.9 ± 0.6
348.15 K, 1000 kPa | 1351 ± 0.8
348.15 K, 10000 kPa | 1358.7 ± 0.9
348.15 K, 20000 kPa | 1366.7 ± 0.9
348.15 K, 40000 kPa | 1381.5 ± 1.2
348.15 K, 60000 kPa | 1394.9 ± 1.4
348.15 K, 80000 kPa | 1407.1 ± 1.7
348.15 K, 100000 kPa | 1418.6 ± 2.1
348.15 K, 120000 kPa | 1429.3 ± 2.5
349.15 K, 101.33 kPa | 1349.2 ± 0.6
350.15 K, 101.33 kPa | 1348.3 ± 0.6
351.15 K, 101.33 kPa | 1347.4 ± 0.6
352.15 K, 101.33 kPa | 1346.6 ± 0.6
353.15 K, 101.33 kPa | 1345.7 ± 0.6
354.15 K, 101.33 kPa | 1344.9 ± 0.6
355.15 K, 101.33 kPa | 1344 ± 0.6
356.15 K, 101.33 kPa | 1343.2 ± 0.6
357.15 K, 101.33 kPa | 1342.3 ± 0.6
358.15 K, 101.33 kPa | 1341.5 ± 0.6
359.15 K, 101.33 kPa | 1340.6 ± 0.6
360.15 K, 101.33 kPa | 1339.8 ± 0.6
361.15 K, 101.33 kPa | 1338.9 ± 0.6
362.15 K, 101.33 kPa | 1338 ± 0.6
363.15 K, 101.33 kPa | 1337 ± 0.6
364.15 K, 101.33 kPa | 1336.1 ± 0.6
365.15 K, 101.33 kPa | 1335.2 ± 0.6
366.15 K, 101.33 kPa | 1334.3 ± 0.6
367.15 K, 101.33 kPa | 1333.4 ± 0.6
368.15 K, 101.33 kPa | 1332.5 ± 0.6
369.15 K, 101.33 kPa | 1331.7 ± 0.6
370.15 K, 101.33 kPa | 1330.9 ± 0.6
371.15 K, 101.33 kPa | 1330.1 ± 0.6
372.15 K, 101.33 kPa | 1329.2 ± 0.6
373.15 K, 100 kPa | 1329.5 ± 5
373.15 K, 101.33 kPa | 1328.4 ± 0.6
373.15 K, 1000 kPa | 1329.7 ± 3
373.15 K, 10000 kPa | 1338 ± 3
373.15 K, 20000 kPa | 1346.6 ± 3.1
373.15 K, 40000 kPa | 1362.3 ± 3.1
373.15 K, 60000 kPa | 1376.5 ± 3.2
373.15 K, 80000 kPa | 1389.5 ± 3.4
373.15 K, 100000 kPa | 1401.5 ± 3.5
373.15 K, 120000 kPa | 1412.7 ± 3.7
398.15 K, 100 kPa | 1309.1 ± 5
398.15 K, 1000 kPa | 1308.9 ± 3
398.15 K, 10000 kPa | 1317.8 ± 3
398.15 K, 20000 kPa | 1327 ± 3.1
398.15 K, 40000 kPa | 1343.7 ± 3.1
398.15 K, 60000 kPa | 1358.6 ± 3.2
398.15 K, 80000 kPa | 1372.3 ± 3.3
398.15 K, 100000 kPa | 1384.8 ± 3.5
398.15 K, 120000 kPa | 1396.6 ± 3.6
